The source of these data is PMC8092876, “A Leucyl-tRNA Synthetase Inhibitor with Broad-Spectrum Antimycobacterial Activity” (Antimicrobial Agents and Chemotherapy, 2021).

Assay [1] concerns M. tuberculosis H37Rv ATCC 27294. Description: MIC assay in 96-well plate format. Format: cell-based. To be noted: Mycobacterium tuberculosis, 168 h.
Assay [2] has the same test system. More on the design: method as in PMID 28953378. The following applies: 7H9; cited from earlier work.
Assay [3] relates to M. abscessus Bamboo. Description: MIC assay in 96-well plate format. Format: cell-based, M. abscessus subsp. abscessus. The following applies: Mycobacteroides abscessus.
Another assay deals with M. avium 11. The assay is described as follows: MIC assay in 96-well plate format. Format: cell-based, M. avium subsp. hominissuis.
In assay [4] the test system is M. abscessus subsp. massiliense M111. Description: MIC assay in 96-well plate format. Type of assay: cell-based. The following applies: Mycobacteroides abscessus; M. abscessus subsp. massiliense M111, clinical isolate.
A further assay relates to M. chimaera CCUG 50989T. Description: MIC assay in 96-well plate format. To be noted: CCUG50989T, culture collection reference strain. Format: cell-based.
Assay [5] deals with M. abscessus subsp. abscessus K21. The assay is described as follows: MIC assay in 96-well plate format. The following applies: Mycobacteroides abscessus; M. abscessus subsp. abscessus K21, clinical isolate, infection model. Type of assay: cell-based.
For assay [6], the system named is M. abscessus Bamboo RM2 (LeuS K502E). Description: microbe, parasite or virus in culture. Format: cell-based. The following applies: Mycobacteroides abscessus.
Assay [7] concerns M. abscessus Bamboo RM3 (LeuS V417M). Description: microbe, parasite or virus in culture. Format: cell-based. The following applies: Mycobacteroides abscessus, RM3, batch 1, LeuS V417M.
Assay [8] deals with M. abscessus Bamboo. Description: MIC and MBC determination in culture tubes (planktonic).
Experimental: M. abscessus Bamboo culture was grown to mid-log-phase (OD600 = 0.4 to 0.6) and diluted to OD600 = 0.1 (1 × 10^7 CFU/ml). Aliquots of 1.2 ml of the resulting bacteria suspension were transferred into 14 ml vented, round-bottom tubes (Thermo Fisher 150268, Rochester, NY, United States). A 10-point 2-fold dilution series of the compound was prepared, starting at 100 times the desired highest concentration. The compound concentration range tested was 100 to 0.195 μM. For each drug concentration tested, 12 μl of drug stock was added to two tubes and vortexed. Aliquots of 12 μl of DMSO were added to two tubes as the untreated controls (1% final DMSO concentration). From each tube, 200 μl was transferred to wells on a 96-well plate and the OD600 was measured using a Tecan Infinite M200 plate reader (day 0 reading). The tubes (1 ml final volume) were incubated on a tilted rack at 37°C on an orbital shaker at 220 rpm. On day 2, tubes were vortexed before transferring 200 μl onto a 96-well plate to measure the OD600 again (day 2 reading). To determine the MIC, day 0 and day 2 OD600 values were analyzed as previously described for MIC determination in 96-well plate format. To determine the MBC, CFU measurement was done for the OD600 = 0.1 bacteria suspension on day 0 and for each tube on day 2. Specifically, serial 10-fold dilutions were prepared in phosphate-buffered saline (Thermo Fisher 10010023) containing 0.025% Tween 80 (PBS/Tween 80) and plated on 7H10 agar. The MBC was defined as the lowest concentration of drug that reduced the CFU/ml value by 10-fold relative to the day 0 CFU/ml value.
The subject of assay [9] is M. abscessus subsp. massiliense CCUG 48898T. The assay is described as follows: MIC assay in 96-well plate format. Format: cell-based. The following applies: Mycobacteroides abscessus, culture collection reference strain.
For assay [10], the system named is M. abscessus Bamboo RM5 (LeuS V417M). The assay is described as follows: microbe, parasite or virus in culture. Format: cell-based. The following applies: Mycobacteroides abscessus, RM5, batch 2, LeuS V417M.
The subject of assay [11] is M. abscessus subsp. bolletii M232. Description: MIC assay in 96-well plate format. Type of assay: cell-based. To be noted: Mycobacteroides abscessus; M. abscessus subsp. bolletii M232, clinical isolate.
Assay [12] concerns M. abscessus Bamboo RM1 (LeuS A428P). Description: microbe, parasite or virus in culture. Format: cell-based. To be noted: Mycobacteroides abscessus.
Assay [13] relates to M. abscessus subsp. abscessus M422. Description: MIC assay in 96-well plate format. Type of assay: cell-based. To be noted: Mycobacteroides abscessus; M. abscessus subsp. abscessus M422, clinical isolate.
In assay [14] the test system is M. abscessus subsp. abscessus M199. The assay is described as follows: MIC assay in 96-well plate format. The following applies: Mycobacteroides abscessus; M. abscessus subsp. abscessus M199, clinical isolate. Type of assay: cell-based.
In assay [15] the test system is M. abscessus Bamboo RM4 (LeuS T327R). The assay is described as follows: microbe, parasite or virus in culture. The following applies: Mycobacteroides abscessus. Type of assay: cell-based.
The test system of assay [16] is M. abscessus Bamboo biofilms. The assay is described as follows: Biofilm growth inhibition assay (biofilm MIC and MBC). Format: cell-based, M. abscessus subsp. abscessus. To be noted: Mycobacteroides abscessus. How it is done: The biofilm growth inhibition assay was performed as previously described ([40]). Innovotech MBEC 96-well biofilm assay plates (Innovotech 19111, Edmonton, AB, Canada) were used, and the supplier’s manual was followed with minor modifications. Mid-log-phase M. abscessus Bamboo precultures (OD600 = 0.4 to 0.6) were spun down at 3200 × g for 10 min at 25°C and washed with 7H9 medium without Tween 80 (7H9nt). Bacteria were resuspended into 25 ml 7H9nt to an OD600 of 0.0125 (1.0 × 10^6 CFU/ml). […] The lids with the pegs were transferred to a new MBEC multititer plate containing 150 μl of fresh 7H9nt medium per well without bacteria (0 h time point). After that, the pegs with growing biofilm were transferred once a day to a new multititer plate containing fresh 7H9nt medium. To measure growth of the biofilm formed on the peg, the pegs were washed in 200 μl of 7H9nt medium before they were aseptically removed and placed in 1.7 ml microcentrifuge tubes (VWR 87003-294, Rador, PA, United States) containing 500 μl PBS/Tween 80. The microcentrifuge tubes were vigorously vortexed at 2,000 rpm for 90 s at 25°C to detach the bacteria from the pegs before samples were serially diluted and plated for the determination of CFU/peg. […] The average drug-free biofilm growth was calculated by subtracting the average 24 h CFU/peg value from the average 72 h CFU/peg value for the untreated control pegs. The biofilm MIC was defined as the lowest drug concentration that reduced the CFU/peg by 90% relative to that of the average drug-free biofilm growth.

For assay [17], the system named is M. abscessus subsp. abscessus ATCC 19977. The assay is described as follows: MIC assay in 96-well plate format. Format: cell-based. To be noted: Mycobacteroides abscessus, ATCC19977; M. abscessus subsp. abscessus ATCC 19977, culture collection reference strain.
In assay [18] the test system is M. intracellulare ATCC 13950. Description: MIC assay in 96-well plate format. Format: cell-based. The following applies: Mycobacterium intracellulare, ATCC13950; M. intracellulare ATCC 13950, culture collection reference strain.
The test system of assay [19] is M. abscessus subsp. abscessus M9. The assay is described as follows: MIC assay in 96-well plate format. Format: cell-based. To be noted: Mycobacteroides abscessus; M. abscessus subsp. abscessus M9, clinical isolate.
The subject of assay [20] is M. abscessus subsp. bolletii CCUG 50184T. The assay is described as follows: MIC assay in 96-well plate format. Type of assay: cell-based. To be noted: Mycobacteroides abscessus, culture collection reference strain.
In assay [21] the test system is M. abscessus subsp. abscessus M337. The assay is described as follows: MIC assay in 96-well plate format. Format: cell-based. To be noted: Mycobacteroides abscessus; M. abscessus subsp. abscessus M337, clinical isolate.
Assay [22] has as its system M. abscessus subsp. abscessus M404. The assay is described as follows: MIC assay in 96-well plate format. Format: cell-based. The following applies: Mycobacteroides abscessus; M. abscessus subsp. abscessus M404, clinical isolate.
Assay [23] relates to M. abscessus subsp. bolletii M506. Description: MIC assay in 96-well plate format. Format: cell-based. The following applies: Mycobacteroides abscessus; M. abscessus subsp. bolletii M506, clinical isolate.

≈ marks a conversion by molar mass, not a printed value. Where “and” joins values, the source holds several entries; their conditions need not be identical. Equal entries are not always repeated. Where two headings read alike, the source gives them in different places.

Molecule `CO[C@H]1/C=C/O[C@@]2(C)Oc3c(C)c(O)c4c(O)c(c(/C=N/N5CCN(C)CC5)c(O)c4c3C2=O)NC(=O)/C(C)=C\C=C\[C@H](C)[C@H](O)[C@@H](C)[C@@H](O)[C@@H](C)[C@H](OC(C)=O)[C@@H]1C` [rifampin, reference compound] had an MIC in assay [1] of 0.66 µM (≈ 0.543 µg/mL).

On to `NC[C@H]1OB(O)c2c(OCCO)ccc(Cl)c21` [GSK656, (S)-3-(aminomethyl)-4-chloro-7–(2-hydroxyethoxy)benzo[c][1,2]oxaborol-1(3H)-ol], for which the MIC in assay [2] is 0.08 μM and 0.08^d μM; in the assay on M. abscessus Bamboo [3] (72 h, read-out: MIC), 0.27 µM (≈ 0.0695 µg/mL); against M. avium 11 (Mycobacterium avium, 11, 96 h), over 50 µM.

With `CC[C@H]1OC(=O)[C@H](C)[C@@H](O[C@H]2C[C@@](C)(OC)[C@@H](O)[C@H](C)O2)[C@H](C)[C@@H](O[C@@H]2O[C@H](C)C[C@H](N(C)C)[C@H]2O)[C@](C)(OC)C[C@@H](C)C(=O)[C@H](C)[C@@H](O)[C@]1(C)O` [CLR, clarithromycin, reference compound], the MIC amounted to 0.24 µM (≈ 0.18 µg/mL) in [4]; 0.19 µM (≈ 0.142 µg/mL) in the assay on M. chimaera CCUG 50989T; 0.4 µM (≈ 0.299 µg/mL) in assay [5]; 0.38 µM (≈ 0.284 µg/mL) in [6]; 0.43 µM (≈ 0.322 µg/mL) in assay [7]; 0.28 µM (≈ 0.209 µg/mL) in the assay on M. abscessus Bamboo [8] (Mycobacteroides abscessus, 48 h). The MIC in assay [9] was 0.19 µM (≈ 0.142 µg/mL); in [10], 0.46 µM (≈ 0.344 µg/mL); in assay [11], 0.95 µM (≈ 0.711 µg/mL); in assay [12] it was 0.36 µM (≈ 0.269 µg/mL); in assay [13], 0.65 µM (≈ 0.486 µg/mL); in [14], 2.7 µM (≈ 2.02 µg/mL). Also, the MIC in assay [15] came to 0.42 µM (≈ 0.314 µg/mL); in assay [16] (48 h with drug, 90% reduction of CFU/peg growth) it was 1.6 µM (≈ 1.2 µg/mL); in assay [17] it was 0.9 µM (≈ 0.673 µg/mL); in assay [18], 0.15 µM (≈ 0.112 µg/mL); against M. abscessus Bamboo [3], 0.31 µM (≈ 0.232 µg/mL); in the assay on M. abscessus Bamboo [3] (72 h, M. abscessus Bamboo, 7H9, 3 days, read-out: MIC), 0.23 µM (≈ 0.172 µg/mL). For the same molecule, the MIC with M. abscessus Bamboo [3] (72 h, M. abscessus Bamboo, CAMH broth, 3 days, read-out: MIC) is 0.07 µM (≈ 0.0524 µg/mL); in [19], 0.73 µM (≈ 0.546 µg/mL); in assay [20], 2.5 µM (≈ 1.87 µg/mL); in assay [21], 0.9 µM (≈ 0.673 µg/mL); in assay [22] it was 0.2 µM (≈ 0.15 µg/mL); in the assay on M. avium 11 (Mycobacterium avium, 96 h, M. avium 11, 7H9, 4 days, read-out: MIC), 0.3 µM (≈ 0.224 µg/mL). The molecule further had an MIC in assay [23] of 0.28 µM (≈ 0.209 µg/mL). Besides, the MBC with M. abscessus Bamboo [8] (Mycobacteroides abscessus) was over 100 µM; with M. abscessus Bamboo [8] (planktonic M. abscessus Bamboo in culture tubes, day 2, 10-fold CFU/ml reduction vs day 0) it was over 100 µM; in assay [16] (10-fold CFU/peg reduction vs 24 h), over 100 µM.
